Experimental data reported in patent US8952024B2, “Herbicidal pyrimidone derivatives” (E I du Pont de Nemours and Company, priority 2009, dated 2015).

Columns and labels:
Assay type in all cases: in vivo
[1] = tested on: barnyardgrass (Echinochloa crus-galli); assay: Test A pre-/postemergence plant response
Text: (§1) Seeds of barnyardgrass (Echinochloa crus-galli), large crabgrass (Digitaria sanguinalis), giant foxtail (Setaria faberii), morningglory (Ipomoea spp.), pigweed (Amaranthus retroflexus), velvetleaf (Abutilon theophrasti), wheat (Triticum aestivum) and corn (Zea mays) were planted into a blend of loam soil and sand and treated preemergence with a directed soil spray using test chemicals formulated in a non-phytotoxic solvent mixture which included a surfactant. At the same time these species were also treated with postemergence applications of test compounds formulated in the same manner.
(§2) Plants ranged in height from two to ten cm and were in the one- to two-leaf stage for the postemergence treatment. Treated plants and untreated controls were maintained in a greenhouse for approximately ten days, after which time all treated plants were compared to untreated controls and visually evaluated for injury. Plant response ratings, summarized in Table A, are based on a 0 to 100 scale where 0 is no effect and 100 is complete control. A dash (-) response means no test result.

[2] = tested on: corn (Zea mays); assay: Test A pre-/postemergence plant response
Text: as §1, §2

[3] = tested on: giant foxtail (Setaria faberii); assay: Test A pre-/postemergence plant response
Text: as §1, §2

[4] = tested on: large crabgrass (Digitaria sanguinalis); assay: Test A pre-/postemergence plant response
Text: as §1, §2

[5] = tested on: morningglory (Ipomoea spp.); assay: Test A pre-/postemergence plant response
Text: as §1, §2

[6] = tested on: pigweed (Amaranthus retroflexus); assay: Test A pre-/postemergence plant response
Text: as §1, §2

[7] = tested on: velvetleaf (Abutilon theophrasti); assay: Test A pre-/postemergence plant response
Text: as §1, §2

[8] = tested on: wheat (Triticum aestivum); assay: Test A pre-/postemergence plant response
Text: as §1, §2

[9] = tested on: barnyardgrass (Echinochloa crus-galli); assay: Test B flooded paddy test; conditions: for Plant response rating, Flood, Barnyardgrass: 250 g ai/ha, flooded paddy test, visual rating on 0 to 100 scale (0 no effect, 100 complete control) after 13 to 15 days; for Plant response rating, Barnyardgrass: Flood (flooded paddy test), 13 to 15 days; for Barnyardgrass plant response rating: Flood, scale 0 to 100 (0 no effect, 100 complete control)
Text: (§3) Plant species in the flooded paddy test consisted of rice (Oryza sativa), umbrella sedge (Cyperus difformis), ducksalad (Heteranthera limosa) and barnyardgrass (Echinochloa crus-galli) grown to the 2-leaf stage for testing. At the time of treatment, test pots were flooded with water to 3 cm above the soil surface, treated by application of test compounds directly to the paddy water, and then maintained at that water depth for the duration of the test.
(§4) Treated plants and controls were maintained in a greenhouse for 13 to 15 days, after which time all treated plants were visually evaluated and compared to controls. Plant response ratings, summarized in Table B, are based on a scale of 0 to 100 where 0 is no effect and 100 is complete control. A dash (-) response means no test result.

[10] = tested on: ducksalad (Heteranthera limosa); assay: Test B flooded paddy test; conditions: for Plant response rating, Flood, Ducksalad: 250 g ai/ha, flooded paddy test, visual rating on 0 to 100 scale (0 no effect, 100 complete control) after 13 to 15 days; for Plant response rating, Ducksalad: Flood (flooded paddy test), 13 to 15 days; for Ducksalad plant response rating: Flood, scale 0 to 100 (0 no effect, 100 complete control)
Text: as §3, §4

[11] = tested on: rice (Oryza sativa); assay: Test B flooded paddy test; conditions: for Plant response rating, Flood, Rice: 250 g ai/ha, flooded paddy test, visual rating on 0 to 100 scale (0 no effect, 100 complete control) after 13 to 15 days; for Plant response rating, Rice: Flood (flooded paddy test), 13 to 15 days; for Rice plant response rating: Flood, scale 0 to 100 (0 no effect, 100 complete control)
Text: as §3, §4

[12] = tested on: umbrella sedge (Cyperus difformis); assay: Test B flooded paddy test; conditions: for Plant response rating, Flood, Sedge, Umbrella: 250 g ai/ha, flooded paddy test, visual rating on 0 to 100 scale (0 no effect, 100 complete control) after 13 to 15 days; for Plant response rating, Sedge, Umbrella: Flood (flooded paddy test), 13 to 15 days; for Sedge, Umbrella plant response rating: Flood, scale 0 to 100 (0 no effect, 100 complete control)
Text: as §3, §4

[13] = Postemergence, 125 g ai/ha, visual injury, 0 to 100 scale (0 no effect, 100 complete control), approx. ten days
[14] = Postemergence, 500 g ai/ha, 0 to 100 scale, 0 = no effect, 100 = complete control, approx. ten days
[15] = Preemergence, 125 g ai/ha, 0 to 100 scale, 0 = no effect, 100 = complete control
[16] = Preemergence, 500 g ai/ha, visual injury, 0 to 100 scale (0 no effect, 100 complete control), approx. ten days
[17] = 31 g ai/ha, scale of 0 to 100 where 0 is no effect and 100 is complete control
[18] = 62 g ai/ha, scale 0 to 100, 0 is no effect, 100 is complete control
[19] = 125 g ai/ha, scale 0 to 100, 0 is no effect, 100 is complete control
[20] = Postemergence, 125 g ai/ha, 0 to 100 scale where 0 is no effect and 100 is complete control
[21] = Postemergence, 500 g ai/ha, visual injury, 0 to 100 scale (0 no effect, 100 complete control), approx. ten days
[22] = Preemergence, 500 g ai/ha, 0 to 100 scale, 0 = no effect, 100 = complete control
[23] = 62 g ai/ha, scale of 0 to 100 where 0 is no effect and 100 is complete control

Compound: C=CCn1c(-c2ccccc2)ncc(C(=O)C2=C(O)CCCC2=O)c1=O [Compound 23]
- Barnyardgrass plant response rating [1, 13]: 10
- Plant response rating, Barnyardgrass [1, 14]: 60
- Plant response rating, Barnyardgrass [1, 15]: 0
- Plant response rating, Barnyardgrass [1, 16]: 70
- Corn plant response rating [2, 13]: 0
- Plant response rating, Corn [2, 14]: 0
- Plant response rating, Corn [2, 15]: 0
- Plant response rating, Corn [2, 16]: 0
- Foxtail, Giant plant response rating [3, 13]: 10
- Plant response rating, Foxtail, Giant [3, 14]: 50
- Plant response rating, Foxtail, Giant [3, 15]: 0
- Plant response rating, Foxtail, Giant [3, 16]: 20
- Crabgrass, Large plant response rating [4, 13]: 30
- Plant response rating, Crabgrass, Large [4, 14]: 60
- Plant response rating, Crabgrass, Large [4, 15]: 10
- Plant response rating, Crabgrass, Large [4, 16]: 90
- Morningglory plant response rating [5, 13]: 50
- Plant response rating, Morningglory [5, 14]: 100
- Plant response rating, Morningglory [5, 15]: 0
- Plant response rating, Morningglory [5, 16]: 70
- Pigweed plant response rating [6, 13]: 80
- Plant response rating, Pigweed [6, 14]: 100
- Plant response rating, Pigweed [6, 15]: 50
- Plant response rating, Pigweed [6, 16]: 70
- Velvetleaf plant response rating [7, 13]: 100
- Plant response rating, Velvetleaf [7, 14]: 100
- Plant response rating, Velvetleaf [7, 15]: 40
- Plant response rating, Velvetleaf [7, 16]: 100
- Wheat plant response rating [8, 13]: 0
- Plant response rating, Wheat [8, 14]: 0
- Plant response rating, Wheat [8, 15]: 0
- Plant response rating, Wheat [8, 16]: 0
- Plant response rating, Flood, Barnyardgrass [9]: 0
- Plant response rating, Barnyardgrass [9, 17]: 0
- Plant response rating, Barnyardgrass [9, 18]: 0
- Plant response rating, Barnyardgrass [9, 19]: 0
- Plant response rating, Flood, Ducksalad [10]: 45
- Plant response rating, Ducksalad [10, 17]: 20
- Plant response rating, Ducksalad [10, 18]: 35
- Plant response rating, Ducksalad [10, 19]: 45
- Plant response rating, Flood, Rice [11]: 15
- Plant response rating, Rice [11, 17]: 0
- Plant response rating, Rice [11, 18]: 0
- Plant response rating, Rice [11, 19]: 0
- Plant response rating, Flood, Sedge, Umbrella [12]: 45
- Plant response rating, Sedge, Umbrella [12, 17]: 20
- Plant response rating, Sedge, Umbrella [12, 18]: 30
- Plant response rating, Sedge, Umbrella [12, 19]: 40

Compound: O=C1CCCC(O)=C1C(=O)c1cnc(-c2cccc(F)c2)n(CCC(F)(F)F)c1=O [Compound 208]
- Plant response rating, Barnyardgrass [1, 20]: 30
- Barnyardgrass plant response rating [1, 21]: 90
- Plant response rating, Barnyardgrass [1, 15]: 10
- Plant response rating, Barnyardgrass [1, 22]: 80
- Plant response rating, Corn [2, 20]: 0
- Corn plant response rating [2, 21]: 20
- Plant response rating, Corn [2, 15]: 0
- Plant response rating, Corn [2, 22]: 20
- Plant response rating, Foxtail, Giant [3, 20]: 30
- Foxtail, Giant plant response rating [3, 21]: 80
- Plant response rating, Foxtail, Giant [3, 15]: 40
- Plant response rating, Foxtail, Giant [3, 22]: 70
- Plant response rating, Crabgrass, Large [4, 20]: 30
- Crabgrass, Large plant response rating [4, 21]: 80
- Plant response rating, Crabgrass, Large [4, 15]: 80
- Plant response rating, Crabgrass, Large [4, 22]: 100
- Plant response rating, Morningglory [5, 20]: 50
- Morningglory plant response rating [5, 21]: 100
- Plant response rating, Morningglory [5, 15]: 0
- Plant response rating, Morningglory [5, 22]: 70
- Plant response rating, Pigweed [6, 20]: 80
- Pigweed plant response rating [6, 21]: 90
- Plant response rating, Pigweed [6, 15]: 60
- Plant response rating, Pigweed [6, 22]: 100
- Plant response rating, Velvetleaf [7, 20]: 100
- Velvetleaf plant response rating [7, 21]: 100
- Plant response rating, Velvetleaf [7, 15]: 60
- Plant response rating, Velvetleaf [7, 22]: 90
- Plant response rating, Wheat [8, 20]: 0
- Wheat plant response rating [8, 21]: 10
- Plant response rating, Wheat [8, 15]: 0
- Plant response rating, Wheat [8, 22]: 20
- Plant response rating, Flood, Barnyardgrass [9]: 25
- Plant response rating, Barnyardgrass [9, 23]: 0
- Plant response rating, Barnyardgrass [9, 19]: 15
- Barnyardgrass plant response rating ([9]; 31 g ai/ha): 0
- Plant response rating, Flood, Ducksalad [10]: 75
- Plant response rating, Ducksalad [10, 23]: 30
- Plant response rating, Ducksalad [10, 19]: 40
- Ducksalad plant response rating ([10]; 31 g ai/ha): 0
- Plant response rating, Flood, Rice [11]: 0
- Plant response rating, Rice [11, 23]: 0
- Plant response rating, Rice [11, 19]: 0
- Rice plant response rating ([11]; 31 g ai/ha): 0
- Plant response rating, Flood, Sedge, Umbrella [12]: 70
- Plant response rating, Sedge, Umbrella [12, 23]: 40
- Plant response rating, Sedge, Umbrella [12, 19]: 40
- Sedge, Umbrella plant response rating ([12]; 31 g ai/ha): 0

Compound: O=C1CCCC(O)=C1C(=O)c1cnc(-c2ccc(Cl)s2)n(-c2ccccc2)c1=O [Compound 65]
- Barnyardgrass plant response rating [1, 13]: 10
- Plant response rating, Barnyardgrass [1, 14]: 50
- Plant response rating, Barnyardgrass [1, 15]: 0
- Plant response rating, Barnyardgrass [1, 16]: 10
- Corn plant response rating [2, 13]: 0
- Plant response rating, Corn [2, 14]: 0
- Plant response rating, Corn [2, 15]: 0
- Plant response rating, Corn [2, 16]: 0
- Foxtail, Giant plant response rating [3, 13]: 10
- Plant response rating, Foxtail, Giant [3, 14]: 40
- Plant response rating, Foxtail, Giant [3, 15]: 0
- Plant response rating, Foxtail, Giant [3, 16]: 40
- Crabgrass, Large plant response rating [4, 13]: 30
- Plant response rating, Crabgrass, Large [4, 14]: 60
- Plant response rating, Crabgrass, Large [4, 15]: 10
- Plant response rating, Crabgrass, Large [4, 16]: 80
- Morningglory plant response rating [5, 13]: 50
- Plant response rating, Morningglory [5, 14]: 60
- Plant response rating, Morningglory [5, 15]: 0
- Plant response rating, Morningglory [5, 16]: 0
- Pigweed plant response rating [6, 13]: 20
- Plant response rating, Pigweed [6, 14]: 60
- Plant response rating, Pigweed [6, 15]: 0
- Plant response rating, Pigweed [6, 16]: 0
- Velvetleaf plant response rating [7, 13]: 90
- Plant response rating, Velvetleaf [7, 14]: 100
- Plant response rating, Velvetleaf [7, 15]: 30
- Plant response rating, Velvetleaf [7, 16]: 50
- Wheat plant response rating [8, 13]: 0
- Plant response rating, Wheat [8, 14]: 0
- Plant response rating, Wheat [8, 15]: 0
- Plant response rating, Wheat [8, 16]: 0
- Plant response rating, Flood, Barnyardgrass [9]: 0
- Plant response rating, Barnyardgrass [9, 23]: 0
- Plant response rating, Barnyardgrass [9, 19]: 0
- Barnyardgrass plant response rating ([9]; 31 g ai/ha): 0
- Plant response rating, Flood, Ducksalad [10]: 0
- Plant response rating, Ducksalad [10, 23]: 0
- Plant response rating, Ducksalad [10, 19]: 0
- Ducksalad plant response rating ([10]; 31 g ai/ha): 0
- Plant response rating, Flood, Rice [11]: 0
- Plant response rating, Rice [11, 23]: 0
- Plant response rating, Rice [11, 19]: 0
- Rice plant response rating ([11]; 31 g ai/ha): 0
- Plant response rating, Flood, Sedge, Umbrella [12]: 0
- Plant response rating, Sedge, Umbrella [12, 23]: 0
- Plant response rating, Sedge, Umbrella [12, 19]: 0
- Sedge, Umbrella plant response rating ([12]; 31 g ai/ha): 0
